# Data from patent US9163012B2, “Carbamate and urea inhibitors of 11β-hydroxysteroid dehydrogenase 1” (Vitae Pharmaceuticals, Inc., priority 2009, dated 2015).
# Read-outs that look alike come from different tables or passages of the source.
# Molecular target: 11β-HSD1 (Homo sapiens (Human), UniProt P28845)
# Experiment: Biological Test Example 1: inhibition of a microsomal preparation of 11β-HSD1 (SPA)
# Type: biochemical
# Conditions: for inhibition at 0.1 µM: read-out: Average % inhibition at 100 nM, Biological Test Example 1; for inhibition at 0.111 µM: 111 nM compound, read-out: Average % inhibition at 111 nM
# Protocol: All reactions were carried out at rt in 96 well clear flexible PET Microbeta plates (PerkinElmer). […] After a 10 minute pre-incubation, 50 μL of enzyme solution containing microsomes isolated from CHO cells overexpressing human 11-HSD1 (10-20 μg/ml of total protein) was added, and the plates were incubated for 90 minutes at rt. The reaction was stopped by adding 50 μl of the SPA beads suspension containing 10 μM […], 5 mg/ml protein A coated YSi SPA beads (GE Healthcare) and 3.3 μg/ml of anti-cortisol antibody (East Coast Biologics) in Superblock buffer (Bio-Rad). The plates were shaken for 120 minutes at rt, and the SPA signal corresponding to [^3H]cortisol was measured on a Microbeta plate reader.
# [1] = Biological Test Example 1, microsomes from CHO cells overexpressing human 11β-HSD1, read-out: IC50 Range
# [2] = Biological Test Example 1, read-out: IC50
# [3] = Biological Test Example 1, 100 nM compound
# Chain of 11β-HSD1 (P28845 whole entry): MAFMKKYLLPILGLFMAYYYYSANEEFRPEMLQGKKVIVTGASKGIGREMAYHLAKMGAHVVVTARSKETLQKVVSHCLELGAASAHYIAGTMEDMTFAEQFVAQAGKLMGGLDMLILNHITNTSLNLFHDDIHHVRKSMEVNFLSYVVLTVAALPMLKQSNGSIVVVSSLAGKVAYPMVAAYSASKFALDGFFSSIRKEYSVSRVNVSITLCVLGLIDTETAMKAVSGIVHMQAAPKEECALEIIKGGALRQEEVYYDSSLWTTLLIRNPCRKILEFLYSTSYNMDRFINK
IC50 [1] [nM],IC50 [2] [nM],inhibition at 0.1 µM (100 nM compound) [%],Average % inhibition at 100 nM [3] [%],SMILES,also measured
< 100,39.5,69.9,–,"Cc1nnc(C2CCCN(C(=O)OC3C4CC5CC3CC(O)(C5)C4)C2)o1 (stereo not shown) [EXAMPLE 25, 1-hydroxy-4-adamantyl 3-(5-methyl-1,3,4-oxadiazol-2-yl)piperidine-1-carboxylate]",–
< 100,0.91,98.2,–,"O=C(OC1C2CC3CC(C2)CC1C3)N1CCC[C@@H]1c1nc(-c2ccncc2)cs1 (stereo partly drawn) [EXAMPLE 50, (R)-2-adamantyl 2-(4-(pyridin-4-yl)thiazol-2-yl)pyrrolidine-1-carboxylate]",–
< 100,43.8,–,–,"O=C(O)COCC1(c2ccccc2)CCN(C(=O)OC2C3CC4CC(C3)CC2C4)CC1 (stereo not shown) [EXAMPLE 16, 2-((1-(2-adamantyloxycarbonyl)-4-phenylpiperidin-4-yl)methoxy)acetic acid]",inhibition at 0.111 µM (Biological Test Example 1): 72.3%
> 100,> 100,–,5.2,"Cc1cc(C2CCN(C(=O)OC3C4CC5CC3CC(C(N)=O)(C5)C4)C2)nn1C (single isomer, unassigned) [EXAMPLE 40 Isomer 2, 1-carbamoyl-4-adamantyl 3-(1,5-dimethyl-1H-pyrazol-3-yl)pyrrolidine-1-carboxylate]",–
< 100,5.03,39.1,–,"Cc1nc2cc(C#N)ccc2n1[C@H]1CCN(C(=O)OC2C3CC4CC2CC(C(N)=O)(C4)C3)C1 (stereo partly drawn) [EXAMPLE 75, (S)-1-carbamoyl-4-adamantyl 3-(5-cyano-2-methyl-1H-benzo[d]imidazol-1-yl)pyrrolidine-1-carboxylate]",–
< 100,5.39,–,–,"COC(=O)COCC1(c2ccccc2)CCN(C(=O)OC2C3CC4CC(C3)CC2C4)CC1 (stereo not shown) [EXAMPLE 15, 2-adamantyl 4-((2-methoxy-2-oxoethoxy)methyl)-4-phenylpiperidine-1-carboxylate]",inhibition at 0.111 µM (Biological Test Example 1): 80.6%
< 100,1.12,–,94.5,"NC(=O)[C@]12CC3CC(C1)[C@@H](OC(=O)N1CCC(c4ncc(Cl)cn4)C1)C(C3)C2 (single isomer, unassigned) [EXAMPLE 26, trans-(1-carbamoyl-4-adamantyl) 3-(5-chloropyrimidin-2-yl)pyrrolidine-1-carboxylate]",–
< 100,1.95,96.7,–,"Cn1ccc(-c2csc(C3CCN(C(=O)O[C@H]4C5CC6CC4C[C@](C(N)=O)(C6)C5)C3)n2)cc1=O (stereo partly drawn) [EXAMPLE 56, trans-1-carbamoyl-4-adamantyl 3-(4-(1-methyl-2-oxo-1,2-dihydropyridin-4-yl)thiazol-2-yl)pyrrolidine-1-carboxylate]",–
< 100,1.19,95.1,–,"O=C(OC1C2CC3CC(C2)CC1C3)N1CCC[C@@H]1c1nc(-c2cc[n+]([O-])cc2)cs1 (stereo partly drawn) [EXAMPLE 52, (R)-4-(2-(1-((2-adamantyloxy)carbonyl)pyrrolidin-2-yl)thiazol-4-yl)pyridine 1-oxide]",–
< 100,4.52,93,–,"NC(=O)[C@]12CC3CC(C1)[C@@H](OC(=O)N1CC[C@H](n4c(=O)n(CCO)c5cc(F)ccc54)C1)C(C3)C2 [EXAMPLE 73, (S)-trans-1-carbamoyl-4-adamantyl 3-(5-fluoro-3-(2-hydroxyethyl)-2-oxo-2,3-dihydro-1H-benzo[d]imidazol-1-yl)pyrrolidine-1-carboxylate]",–
–,–,–,–,"Cc1nc2cc(F)ccc2n1C1CCN(C(=O)OC2C3CC4CC2CC(C(N)=O)(C4)C3)C1 (single isomer, unassigned; isomer 2) [EXAMPLE 74 Isomer 2]",Average % inhibition at 100 nM: 83.2%; IC50 (read-out: IC50): 16.6 nM; IC50 (read-out: IC50 Range): < 100 nM
< 100,6.39,92.1,–,"NC(=O)[C@]12CC3CC(C1)[C@@H](OC(=O)N1CC[C@@H](Oc4ccc5nccn5n4)C1)C(C3)C2 [EXAMPLE 3, (R)-(trans-(1-carbamoyl-4-adamantyl)) 3-(imidazo[1,2-b]pyridazin-6-yloxy)pyrrolidine-1-carboxylate]",–
–,–,–,13.3,"Cc1ccc(C2CCN(C(=O)OC3C4CC5CC3CC(C(N)=O)(C5)C4)C2)nn1 (single isomer, unassigned) [EXAMPLE 37 Isomer 2]",–
< 100,33.3,–,69.4,"Cn1cc(-c2cnc(C3CCN(C(=O)OC4C5CC6CC4CC(C(N)=O)(C6)C5)C3)nc2)ccc1=O (single isomer, unassigned) [EXAMPLE 58 Isomer 1, trans-1-carbamoyl-4-adamantyl 3-(5-(1-methyl-6-oxo-1,6-dihydropyridin-3-yl)pyrimidin-2-yl)pyrrolidine-1-carboxylate]",–
< 100,1.04,97,–,"NC(=O)[C@]12CC3CC(C1)[C@@H](OC(=O)N1CC[C@@H](n4c(=O)[nH]c5cc(Cl)cnc54)C1)C(C3)C2 [EXAMPLE 69, (R)-trans-1-carbamoyl-4-adamantyl 3-(6-chloro-2-oxo-1H-imidazo[4,5-b]pyridin-3(2H)-yl)pyrrolidine-1-carboxylate]",–
> 100,> 100,–,22.4,"O=C(OC1C2CC3CC1CC(C(=O)O)(C3)C2)N1CCC(c2ncc(Cl)cn2)C1 (single isomer, unassigned) [EXAMPLE 46 Isomer 1, trans-4-((3-(5-chloropyrimidin-2-yl)pyrrolidine-1-carbonyl)oxy)adamantane-1-carboxylic acid]",–
–,–,–,69.0,"NC(=O)C12CC3CC(C1)C(OC(=O)N1CCC(c4ncc(F)cn4)C1)C(C3)C2 (single isomer, unassigned) [EXAMPLE 41 Isomer 2, 1-carbamoyl-4-adamantyl 3-(5-fluoropyrimidin-2-yl)pyrrolidine-1-carboxylate]",–
< 100,0.54,96.9,–,"NC(=O)[C@]12CC3CC(C1)[C@@H](OC(=O)N1CC[C@H](Oc4ccc(C(F)(F)F)cn4)C1)C(C3)C2 [EXAMPLE 6, (S)-(trans-(1-carbamoyl-4-adamantyl)) 3-(5-(trifluoromethyl)pyridin-2-yloxy)pyrrolidine-1-carboxylate]",–
< 100,3.07,92.7,–,"Cn1c(=O)n([C@@H]2CCN(C(=O)O[C@H]3C4CC5CC3C[C@](C(N)=O)(C5)C4)C2)c2ccccc21 [EXAMPLE 62, (R)-trans-1-carbamoyl-4-adamantyl 3-(3-methyl-2-oxo-2,3-dihydro-1H-benzo[d]imidazol-1-yl)pyrrolidine-1-carboxylate]",–
< 100,2.99,–,59.7,"Cc1cnc(C2CCN(C(=O)OC3C4CC5CC3CC(C(N)=O)(C5)C4)C2)nc1 (single isomer, unassigned) [EXAMPLE 39 Isomer 1, 1-carbamoyl-4-adamantyl 3-(5-methylpyrimidin-2-yl)pyrrolidine-1-carboxylate]",–
> 100,> 100,–,3.8,"O=C(OC1C2CC3CC1CC(C(=O)O)(C3)C2)N1CCC(c2ncc(Cl)cn2)C1 (single isomer, unassigned) [EXAMPLE 46 Isomer 2, cis-4-((3-(5-chloropyrimidin-2-yl)pyrrolidine-1-carbonyl)oxy)adamantane-1-carboxylic acid]",–
< 100,5.72,–,86.5,"Cc1cc(C)nc(C2CCN(C(=O)OC3C4CC5CC3CC(C(N)=O)(C5)C4)C2)n1 (single isomer, unassigned) [EXAMPLE 43 Isomer 1, trans-1-carbamoyl-4-adamantyl 3-(4,6-dimethylpyrimidin-2-yl)pyrrolidine-1-carboxylate]",–
–,–,–,16.1,"NC(=O)C12CC3CC(C1)C(OC(=O)N1CCC(c4nccc(C(F)(F)F)n4)C1)C(C3)C2 (single isomer, unassigned) [EXAMPLE 48 Isomer 2, cis-1-carbamoyl-4-adamantyl 3-(4-(trifluoromethyl)pyrimidin-2-yl)pyrrolidine-1-carboxylate]",–
–,–,–,95.2,"COc1cnc(C2CCN(C(=O)OC3C4CC5CC3CC(C(N)=O)(C5)C4)C2)nc1 (single isomer, unassigned) [EXAMPLE 44 Isomer 1, 1-carbamoyl-4-adamantyl 3-(5-methoxypyrimidin-2-yl)pyrrolidine-1-carboxylate]",–
< 100,0.68,97.7,–,"NC(=O)[C@]12CC3CC(C1)[C@@H](OC(=O)N1CC[C@H](n4c(=O)[nH]c5cccc(Cl)c54)C1)C(C3)C2 [EXAMPLE 67, (S)-trans-1-carbamoyl-4-adamantyl 3-(7-chloro-2-oxo-2,3-dihydro-1H-benzo[d]imidazol-1-yl)pyrrolidine-1-carboxylate]",–
< 100,1,99.2,–,"Cn1c(=O)n([C@@H]2CCN(C(=O)O[C@H]3C4CC5CC3C[C@](C(N)=O)(C5)C4)C2)c2ncc(Cl)cc21 [EXAMPLE 29, (R) (trans-1-carbamoyl-4-adamantyl) 3-(6-chloro-1-methyl-2-oxo-1H-imidazo[4,5-b]pyridin-3(2H)-yl)pyrrolidine-1-carboxylate]",–

SMILES,IC50 [1] [nM],IC50 [2] [nM],inhibition at 0.1 µM (100 nM compound) [%],Average % inhibition at 100 nM [3] [%],also measured
"NC(=O)[C@]12CC3CC(C1)[C@@H](OC(=O)N1CC[C@@H](Oc4ncc(F)cc4F)C1)C(C3)C2 (relative stereo) [EXAMPLE 1, (R)-(trans-(1-carbamoyl-4-adamantyl)) 3-(3,5-difluoropyridin-2-yloxy)pyrrolidine-1-carboxylate]",< 100,1.54,–,95.53,–
